Results as given in US11498919B2, “Azaindolylpyridone and diazaindolylpyridone compounds” (Sprint Bioscience AB, priority 2017, dated 2022).

Columns and labels:
Vps34 enzyme = Vps34 enzyme (Homo sapiens (Human), UniProt Q8NEB9); experiment: Vps34 Biochemical Assay (Adapta kinase assay, TR-FRET); conditions: 20 μM ATP and 200 μM PI:PS in substrate mix, 1 h at room temperature, read-out: Median IC50 nM Adapta
Method: Dilution series of compounds of the invention were prepared in DMSO at 100 times the final assay concentration (n1=n0/3 in 10 points). The compounds were further diluted to 4 times the assay concentration in assay buffer (Life technologies buffer Q, PV5125, diluted 5 times supplemented with 2 mM DTT and 2 mM MnCl2). 2.5 μl of the diluted compounds were added to a 384 well assay plate followed by 2.5 μl of 16.5 nM Vps34 enzyme (Life technologies, PV5126). Enzyme and compounds were pre-incubated at rt for 15 min. Then 5 μl of substrate mix containing 20 μM ATP (Life technologies, PV3227) and 200 μM PI:PS substrate (Life technologies, PV5122) in assay buffer was added to the wells containing compound and enzyme. Mixing was performed by pipetting several times. The reaction was incubated at room temperature for 1 h. Then 5 μl stop-detection mix, prepared as described in the Adapta kinase assay kit instructions (Life technologies, PV5099) containing Adapta Eu-anti-ADP antibody (2.3 nM), Alexa Fluor 647 ADP tracer (9 nM) and EDTA (30 mM) in TR-FRET buffer, was added to quench the reaction. Mixing was performed by pipetting several times. The assay plate was then incubated at room temperature for 30 min and read with Artemis micro plate reader. Percent inhibition of the compounds as compared to DMSO treated control samples was calculated. By the use of Dotmatics software compound concentration versus percent inhibition was fitted to generate IC50 values.

[1] = system: Human osteosarcoma cells (HOS) stably expressing GFP-LC3; experiment: High Content Screening Autophagy Assay (GFP-LC3 foci); type: cell-based; conditions: autophagy in HOS cells, activated with KU-0063794 500 nM plus Bafilomycin A1 5 nM, 6 hours, LC3-GFP foci area per cell, read-out: Median IC50 (nM) Cellular assay
Method: Human osteosarcoma cells (HOS) stably expressing a Green Fluorescent Protein (GFP) tagged LC3 (GFP-LC3) were used to determine the inhibitory effect on autophagy of proprietary compounds. For that purpose, autophagy was activated by using the mTOR inhibitor KU-0063794 at 500 nM in the presence of Bafilomycin A1 (Sigma-Aldrich) at 5 nM. Shortly, cells were plated overnight in clear bottom 96-well plates in DMEM—High Modified media (Hi-Clone Cat #SH30285.01). At the start of the experiment, the media was removed and replaced with fresh media containing the mTOR inhibitor, Bafilomycin A1 and the vehicle or a test compound as indicated. After 6 hours the media was removed, cells were washed twice with ice-cold phosphate buffered saline (PBS) and fixed with 4% paraformaldehyde for 20 minutes at room temperature. Then the cells were washed twice with ice-cold PBS before adding Hoechst 33342 at 1 μg/ml in PBS for nuclear staining. After incubation overnight at 4° C., cells were washed once with PBS to remove the excess of dye and 100 μl of PBS was added to each well. Images were acquired at 20× magnification, 6 images per well, using the ImageXpress automated microscope (Molecular Devices Inc.) and analyzed with MetaXpress software to identify LC3-GFP foci. Foci area per cell values were used to generate dose response curves and IC50 values were calculated using the non-linear fitting analysis in GraphPad Prism software. […] The results of the assay are shown in Table 2 (Median IC50 nM HOS-LC3).

Vps34 enzyme, sequence (Q8NEB9 whole entry): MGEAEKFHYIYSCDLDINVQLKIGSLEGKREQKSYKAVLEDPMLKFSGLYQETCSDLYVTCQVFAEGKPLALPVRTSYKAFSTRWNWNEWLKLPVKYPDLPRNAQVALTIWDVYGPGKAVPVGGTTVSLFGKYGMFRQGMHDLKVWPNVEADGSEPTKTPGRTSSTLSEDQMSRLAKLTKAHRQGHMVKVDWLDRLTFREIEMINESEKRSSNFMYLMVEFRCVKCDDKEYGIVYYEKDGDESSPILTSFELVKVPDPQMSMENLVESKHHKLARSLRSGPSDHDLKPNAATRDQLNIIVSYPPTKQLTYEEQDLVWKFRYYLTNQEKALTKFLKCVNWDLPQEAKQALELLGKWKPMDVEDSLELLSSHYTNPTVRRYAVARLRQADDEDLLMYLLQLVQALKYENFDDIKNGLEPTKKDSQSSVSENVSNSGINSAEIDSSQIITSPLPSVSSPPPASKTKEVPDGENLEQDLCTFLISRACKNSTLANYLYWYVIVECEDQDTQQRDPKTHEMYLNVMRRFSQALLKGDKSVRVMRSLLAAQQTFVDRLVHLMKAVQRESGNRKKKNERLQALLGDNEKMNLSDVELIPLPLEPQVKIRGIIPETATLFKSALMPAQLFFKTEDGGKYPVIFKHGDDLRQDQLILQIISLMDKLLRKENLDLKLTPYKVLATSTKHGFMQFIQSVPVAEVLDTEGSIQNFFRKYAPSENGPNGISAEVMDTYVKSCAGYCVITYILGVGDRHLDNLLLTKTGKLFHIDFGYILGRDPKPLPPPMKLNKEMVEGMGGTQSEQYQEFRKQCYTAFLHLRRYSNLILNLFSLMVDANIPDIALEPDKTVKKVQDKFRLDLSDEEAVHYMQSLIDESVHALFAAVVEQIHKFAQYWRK

Compound | IC50 (Vps34 enzyme) [nM] | IC50 [1] [nM]
O=c1cc(-c2ccnc3[nH]ccc23)cc(N2CCCC2c2ccccc2)[nH]1 (stereo not shown) [Example 8, 6-(2-phenylpyrrolidin-1-yl)-4-(1H-pyrrolo[2,3-b]pyridin-4-yl)-1H-pyridin-2-one] | 10 | 366
Cc1cc2c(-c3cc(N4CCOCC4)[nH]c(=O)c3)ccnc2[nH]1 [Example 16, 4-(2-Methyl-1H-pyrrolo[2,3-b]pyridin-4-yl)-6-morpholino-1H-pyridin-2-one] | 12 | 
O=c1cc(-c2ccnc3[nH]ccc23)cc(N2CCCCC2C(F)(F)F)[nH]1 (stereo not shown) [Example 37, 4-(1H-pyrrolo[2,3-b]pyridin-4-yl)-6-[2-(trifluoromethyl)-1-piperidyl]-1H-pyridin-2-one] | < 5 | 145
O=c1cc(-c2ccnc3[nH]ccc23)cc(N2CCOCC2C(F)(F)F)[nH]1 (stereo not shown) [Example 42, 4-(1H-pyrrolo[2,3-b]pyridin-4-yl)-6-[3-(trifluoromethyl)morpholin-4-yl]-1H-pyridin-2-one] | < 5 | 473
O=c1cc(-c2ccnc3[nH]ncc23)cc(N2CCCCC2C(F)(F)F)[nH]1 (stereo not shown) [Example 49, 4-(1H-pyrazolo[3,4-b]pyridin-4-yl)-6-[2-(trifluoromethyl)-1-piperidyl]-1H-pyridin-2-one] | < 5 | 62
O=c1cc(-c2ccnc3[nH]ccc23)cc(N2CCN(S(=O)(=O)Cc3ccc(F)cc3)CC2C(F)(F)F)[nH]1 (stereo not shown) [Example 65, 6-[4-[(4-fluorophenyl)methylsulfonyl]-2-(trifluoromethyl)piperazin-1-yl]-4-(1H-pyrrolo[2,3-b]pyridin-4-yl)-1H-pyridin-2-one] | < 5 | 176
CCS(=O)(=O)N1CCN(c2cc(-c3ccnc4[nH]ccc34)cc(=O)[nH]2)C(C(F)(F)F)C1 (stereo not shown) [Example 71, 6-[4-Ethylsulfonyl-2-(trifluoromethyl)piperazin-1-yl]-4-(1H-pyrrolo[2,3-b]pyridin-4-yl)-1H-pyridin-2-one] | < 5 | 308
CCS(=O)(=O)N1CCN(c2cc(-c3ccnc4[nH]c(C)cc34)cc(=O)[nH]2)C(C(F)(F)F)C1 (stereo not shown) [Example 73, 6-[4-Ethylsulfonyl-2-(trifluoromethyl)piperazin-1-yl]-4-(2-methyl-1H-pyrrolo[2,3-b]pyridin-4-yl)-1H-pyridin-2-one] | < 5 | 28
CCS(=O)(=O)N1CCN(c2cc(-c3ccnc4[nH]c(C#N)cc34)cc(=O)[nH]2)C(C(F)(F)F)C1 (stereo not shown) [Example 74, 4-[2-[4-Ethylsulfonyl-2-(trifluoromethyl)piperazin-1-yl]-6-oxo-1H-pyridin-4-yl]-1H-pyrrolo[2,3-b]pyridine-2-carbonitrile] | < 5 | 89
CS(=O)(=O)N1CCN(c2cc(-c3ccnc4[nH]ncc34)cc(=O)[nH]2)C(C(F)(F)F)C1 (stereo not shown) [Example 88, 6-[4-Methylsulfonyl-2-(trifluoromethyl)piperazin-1-yl]-4-(1H-pyrazolo[3,4-b]pyridin-4-yl)-1H-pyridin-2-one] | < 5 | 

The remaining lines, values ahead:

IC50 (Vps34 enzyme) [nM] | IC50 [1] [nM] | Compound
< 5 | 665 | O=c1cc(-c2ccnc3[nH]ccc23)cc(-c2ccccc2C(F)(F)F)[nH]1 [Example 4, 4-(1H-pyrrolo[2,3-b]pyridin-4-yl)-6-[2-(trifluoromethyl)phenyl]-1H-pyridin-2-one]
20 | 2570 | Cc1cnccc1-c1cc(-c2ccnc3[nH]ccc23)cc(=O)[nH]1 [Example 6, 6-(3-Methyl-4-pyridyl)-4-(1H-pyrrolo[2,3-b]pyridin-4-yl)-1H-pyridin-2-one]
24 | 554 | Cc1cc2c(-c3cc(-c4cccnc4)[nH]c(=O)c3)ccnc2[nH]1 [Example 12, 4-(2-Methyl-1H-pyrrolo[2,3-b]pyridin-4-yl)-6-(3-pyridyl)-1H-pyridin-2-one]
8 | 44 | O=c1cc(-c2ccnc3[nH]c(-c4cnco4)cc23)cc(-c2ccccc2Cl)[nH]1 [Example 23, 6-(2-Chlorophenyl)-4-(2-oxazol-5-yl-1H-pyrrolo[2,3-b]pyridin-4-yl)-1H-pyridin-2-one]
< 5 | 16 | O=c1cc(-c2ccnc3[nH]c(-c4cccnc4)cc23)cc(-c2ccccc2Cl)[nH]1 [Example 27, 6-(2-Chlorophenyl)-4-[2-(3-pyridyl)-1H-pyrrolo[2,3-b]pyridin-4-yl]-1H-pyridin-2-one]
< 5 | 54 | Cc1cc2c(-c3cc(-c4ccccc4Cl)[nH]c(=O)c3)ccnc2[nH]1 [Example 29, 6-(2-Chlorophenyl)-4-(2-methyl-1H-pyrrolo[2,3-b]pyridin-4-yl)-1H-pyridin-2-one]
< 5 | 62 | Cc1cc2c(-c3cc(N4CCCCC4C(F)(F)F)[nH]c(=O)c3)ccnc2[nH]1 (stereo not shown) [Example 36, 4-(2-Methyl-1H-pyrrolo[2,3-b]pyridin-4-yl)-6-[2-(trifluoromethyl)-1-piperidyl]-1H-pyridin-2-one]
34 |  | O=c1cc(-c2ccnc3[nH]c(-c4cccc(C(F)(F)F)c4)cc23)cc(N2CCOCC2C(F)(F)F)[nH]1 (stereo not shown) [Example 45, 6-[3-(Trifluoromethyl)morpholin-4-yl]-4-[2-[3-(trifluoromethyl)phenyl]-1H-pyrrolo[2,3-b]pyridin-4-yl]-1H-pyridin-2-one]
< 5 |  | Cc1ccc(-c2cc3c(-c4cc(N5CCOCC5C(F)(F)F)[nH]c(=O)c4)ccnc3[nH]2)s1 (stereo not shown) [Example 48, 4-[2-(5-Methyl-2-thienyl)-1H-pyrrolo[2,3-b]pyridin-4-yl]-6-[3-(trifluoromethyl)morpholin-4-yl]-1H-pyridin-2-one]
< 5 |  | O=c1cc(-c2ccnc3[nH]c(-c4cnc(C(F)(F)F)nc4)cc23)cc(N2CCCCC2C(F)(F)F)[nH]1 (stereo not shown) [Example 52, 6-[2-(Trifluoromethyl)-1-piperidyl]-4-[2-[2-(trifluoromethyl)pyrimidin-5-yl]-1H-pyrrolo[2,3-b]pyridin-4-yl]-1H-pyridin-2-one]
< 5 |  | O=c1cc(-c2ccnc3[nH]c(-c4ccc(C(F)(F)F)nc4)cc23)cc(N2CCCCC2C(F)(F)F)[nH]1 (stereo not shown) [Example 55, 6-[2-(Trifluoromethyl)-1-piperidyl]-4-[2-[6-(trifluoromethyl)-3-pyridyl]-1H-pyrrolo[2,3-b]pyridin-4-yl]-1H-pyridin-2-one]
7 |  | O=c1cc(-c2ccnc3[nH]c(-c4cncc(C(F)(F)F)c4)cc23)cc(N2CCCCC2C(F)(F)F)[nH]1 (stereo not shown) [Example 58, 6-[2-(Trifluoromethyl)-1-piperidyl]-4-[2-[5-(trifluoromethyl)-3-pyridyl]-1H-pyrrolo[2,3-b]pyridin-4-yl]-1H-pyridin-2-one]
< 5 | 19 | CCS(=O)(=O)N1CCN(c2cc(-c3ccnc4[nH]c(C5CC5)cc34)cc(=O)[nH]2)C(C(F)(F)F)C1 (stereo not shown) [Example 72, 4-(2-Cyclopropyl-1H-pyrrolo[2,3-b]pyridin-4-yl)-6-[4-ethylsulfonyl-2-(trifluoromethyl)piperazin-1-yl]-1H-pyridin-2-one]
< 5 |  | O=c1cc(-c2ccnc3[nH]c(C4CC4)cc23)cc(-c2ccccc2C(F)(F)F)[nH]1 [Example 79, 4-(2-cyclopropyl-1H-pyrrolo[2,3-b]pyridin-4-yl)-6-[2-(trifluoromethyl)phenyl]-1H-pyridin-2-one]
< 5 |  | N#Cc1cc2c(-c3cc(-c4ccccc4C(F)(F)F)[nH]c(=O)c3)ccnc2[nH]1 [Example 80, 4-[2-Oxo-6-[2-(trifluoromethyl)phenyl]-1H-pyridin-4-yl]-1H-pyrrolo[2,3-b]pyridine-2-carbonitrile]
< 5 | 485 | O=c1cc(-c2ccnc3[nH]ncc23)cc(-c2ccccc2C(F)(F)F)[nH]1 [Example 82, 4-(1H-pyrazolo[3,4-b]pyridin-4-yl)-6-[2-(trifluoromethyl)phenyl]-1H-pyridin-2-one]
